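Method: 48-hour compound exposure of cells in 96-well plates, five concentrations, linear interpolation of endpoints. Definition used: TGI = concentration required for complete inhibition of growth.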 Where a SMILES comes first, the peptide text is derived from it. The star is where a group is joined. OSu = O=C1CCC(=O)N1O*
What was measured:
Assay in all cases: growth of human tumour cells (NCI), 48 h
[1] = test system: A498 renal
[2] = test system: OVCAR-4 ovarian
[3] = test system: SNB-19 CNS
[4] = test system: NCI-H23 lung
[5] = test system: ACHN renal
[6] = test system: SNB-75 CNS
[7] = test system: MALME-3M melanoma
[8] = test system: NCI/ADR-RES ovarian
[9] = test system: SF-268 CNS
[10] = test system: COLO 205 colon
[11] = test system: T-47D breast
[12] = test system: UO-31 renal
[13] = test system: M14 melanoma
[14] = test system: MCF7 breast
[15] = test system: MDA-MB-231 breast
[16] = test system: SK-OV-3 ovarian

For `CC(C)C(NC(=O)Oc1ccccc1)C(=O)NC1c2c(Br)sc(Br)c2C(=O)C1O` (centres undefined), the TGI [1] was greater than 25 µM, the TGI [2] was 6.41 µM and the TGI [3] was 10.4 µM. The TGI [4] was 8.41 µM, the TGI [5] was 10.2 µM and the TGI [6] was greater than 25 µM. For the same compound, the TGI [7] was 15.5 µM, the TGI [8] was 16.5 µM and the TGI [9] was 14.1 µM. For the same compound, the TGI [10] was 14.4 µM, the TGI [11] was 16.7 µM and the TGI [12] was greater than 25 µM. For the same compound, the TGI [13] was 11.4 µM, the TGI [14] was greater than 25 µM and the TGI [15] was 9.41 µM. The TGI [16] was greater than 25 µM.

`NC(Cc1ccccc1)C(=O)NC(Cc1ccccc1)NC(=O)C(Cc1c[nH]c2ccccc12)C(=O)O` (centres undefined) showed a TGI [1] greater than 100 µM, a TGI [2] greater than 100 µM and a TGI [3] greater than 100 µM. For the same compound, the TGI [4] was greater than 100 µM, the TGI [5] was greater than 100 µM and the TGI [6] was greater than 100 µM. It also gave a TGI [7] greater than 100 µM, a TGI [8] greater than 100 µM and a TGI [9] greater than 100 µM. For the same compound, the TGI [10] was greater than 100 µM, the TGI [11] was greater than 100 µM and the TGI [12] was greater than 100 µM. The TGI [13] was greater than 100 µM, the TGI [14] was greater than 100 µM and the TGI [15] was greater than 100 µM. The TGI [16] was greater than 100 µM.

In the case of `CCN(CC)CCCNC(=O)c1cc(-c2nccn2C)nc2ccccc12`, the TGI [1] is reported as greater than 100 µM, the TGI [2] is reported as greater than 100 µM and the TGI [3] is reported as greater than 100 µM. The TGI [4] was greater than 100 µM, the TGI [5] was greater than 100 µM and the TGI [6] was greater than 100 µM. For the same compound, the TGI [7] was greater than 100 µM, the TGI [8] was greater than 100 µM and the TGI [9] was greater than 100 µM. The TGI [10] was greater than 100 µM, the TGI [11] was greater than 100 µM and the TGI [12] was greater than 100 µM. The TGI [13] was greater than 100 µM, the TGI [14] was greater than 100 µM and the TGI [15] was greater than 100 µM.

For `CCCCCCc1cc2cc(-c3cn4ccsc4n3)c(=O)oc2cc1O`, the TGI [1] was greater than 100 µM, the TGI [2] was greater than 100 µM and the TGI [3] was greater than 100 µM. It also gave a TGI [4] greater than 100 µM, a TGI [5] greater than 100 µM and a TGI [6] greater than 92.7 µM. The TGI [8] was greater than 100 µM, the TGI [9] was greater than 89.7 µM and the TGI [10] was greater than 100 µM. It also gave a TGI [11] greater than 100 µM, a TGI [12] greater than 100 µM and a TGI [14] greater than 100 µM. For the same compound, the TGI [15] was greater than 100 µM and the TGI [16] was greater than 100 µM.

`CCOC(=O)/C(C#N)=C/c1coc2cc(C)cc(C)c2c1=O` gave a TGI [1] greater than 100 µM, a TGI [3] greater than 100 µM and a TGI [4] greater than 100 µM. For the same compound, the TGI [5] was greater than 100 µM, the TGI [6] was greater than 100 µM and the TGI [7] was greater than 100 µM. For the same compound, the TGI [8] was greater than 100 µM, the TGI [9] was greater than 100 µM and the TGI [10] was greater than 100 µM. For the same compound, the TGI [11] was greater than 100 µM, the TGI [12] was greater than 100 µM and the TGI [13] was greater than 100 µM. For the same compound, the TGI [15] was greater than 100 µM and the TGI [16] was greater than 100 µM.

Work on `Cc1ccc(-[n+]2cc([O-])on2)cc1` yielded a TGI [1] greater than 100 µM, a TGI [2] greater than 100 µM and a TGI [3] greater than 100 µM. For the same compound, the TGI [4] was greater than 100 µM, the TGI [5] was greater than 100 µM and the TGI [7] was greater than 100 µM. For the same compound, the TGI [8] was greater than 100 µM, the TGI [9] was greater than 100 µM and the TGI [11] was greater than 100 µM. It also gave a TGI [12] greater than 100 µM, a TGI [13] greater than 100 µM and a TGI [15] greater than 100 µM.

`CCOC(=O)C(=[N+]=[N-])C(=O)CN1C(=O)c2ccccc2C1=O` was tested, and the TGI [1] was greater than 100 µM, the TGI [2] was greater than 100 µM and the TGI [3] was greater than 100 µM. For the same compound, the TGI [4] was greater than 100 µM, the TGI [5] was greater than 100 µM and the TGI [6] was greater than 100 µM. It also gave a TGI [9] greater than 100 µM, a TGI [10] greater than 100 µM and a TGI [11] greater than 100 µM. The TGI [12] was greater than 100 µM, the TGI [13] was greater than 100 µM and the TGI [14] was greater than 100 µM. The TGI [15] was greater than 100 µM and the TGI [16] was greater than 100 µM.

In the case of `O=C1c2ccccc2-n2nnnc2C2CSCN12` (centres undefined), the TGI [1] is reported as greater than 100 µM, the TGI [2] is reported as greater than 100 µM and the TGI [3] is reported as greater than 100 µM. The TGI [5] was greater than 100 µM, the TGI [6] was greater than 100 µM and the TGI [7] was greater than 100 µM. The TGI [8] was greater than 100 µM, the TGI [9] was greater than 100 µM and the TGI [10] was greater than 100 µM. The TGI [11] was greater than 100 µM, the TGI [12] was greater than 100 µM and the TGI [13] was greater than 100 µM. It also gave a TGI [14] greater than 100 µM, a TGI [15] greater than 100 µM and a TGI [16] greater than 100 µM.

`Cc1ccc(S(=O)(=O)N2CC2CCCCC=O)cc1` (centres undefined) gave a TGI [1] greater than 100 µM, a TGI [2] greater than 100 µM and a TGI [3] greater than 100 µM. It also gave a TGI [4] greater than 100 µM, a TGI [5] greater than 100 µM and a TGI [6] greater than 100 µM. The TGI [7] was greater than 100 µM, the TGI [8] was greater than 100 µM and the TGI [9] was greater than 100 µM. The TGI [10] was greater than 100 µM, the TGI [11] was greater than 100 µM and the TGI [12] was greater than 100 µM. For the same compound, the TGI [13] was greater than 100 µM, the TGI [15] was greater than 100 µM and the TGI [16] was greater than 100 µM.

With `O=C(C(=O)n1ccc2ccccc21)n1ccc2ccccc21` the TGI [1] was greater than 100 µM, the TGI [2] was 78 µM and the TGI [3] was greater than 100 µM. For the same compound, the TGI [4] was greater than 100 µM, the TGI [5] was greater than 100 µM and the TGI [6] was 56 µM. It also gave a TGI [7] greater than 100 µM, a TGI [8] greater than 100 µM and a TGI [9] greater than 100 µM. It also gave a TGI [10] greater than 100 µM, a TGI [11] greater than 100 µM and a TGI [12] greater than 100 µM. The TGI [14] was greater than 100 µM, the TGI [15] was greater than 100 µM and the TGI [16] was greater than 100 µM.

For `COc1cccc(-c2cc(=O)c3cc(N4CCCCC4)ccc3[nH]2)c1`, the TGI [1] was greater than 100 µM, the TGI [2] was greater than 57.9 µM and the TGI [3] was greater than 100 µM. The TGI [4] was greater than 20.4 µM, the TGI [5] was greater than 96.6 µM and the TGI [7] was greater than 100 µM. For the same compound, the TGI [9] was greater than 100 µM, the TGI [11] was greater than 100 µM and the TGI [12] was greater than 100 µM. The TGI [13] was greater than 100 µM, the TGI [14] was greater than 100 µM and the TGI [15] was greater than 100 µM. The TGI [16] was greater than 100 µM.

In the case of `COc1ccc(NC(=S)c2ccc(CN3CCCCC3)s2)cc1`, the TGI [1] is reported as 31.5 µM, the TGI [2] is reported as greater than 100 µM and the TGI [3] is reported as 43.9 µM. It also gave a TGI [4] of 29.5 µM, a TGI [5] greater than 100 µM and a TGI [7] of 37.6 µM. The TGI [8] was 93.8 µM, the TGI [9] was greater than 100 µM and the TGI [10] was 30.8 µM. For the same compound, the TGI [11] was 60.7 µM, the TGI [12] was 35.7 µM and the TGI [13] was 35.4 µM. It also gave a TGI [14] of 33.3 µM and a TGI [16] of 31.8 µM.

Work on `NCCCCC(NC(=O)C(N)Cc1ccc(O)cc1)C(=O)NC(CCCCN)C(=O)NC(CCCCN)C(=O)ON1C(=O)CCC1=O` (centres undefined) (H-YKKK-OSu; configuration not given here) yielded a TGI [1] greater than 100 µM, a TGI [3] greater than 100 µM and a TGI [4] greater than 100 µM. It also gave a TGI [5] greater than 100 µM, a TGI [6] greater than 100 µM and a TGI [7] greater than 100 µM. The TGI [10] was greater than 100 µM, the TGI [11] was greater than 100 µM and the TGI [12] was greater than 100 µM. It also gave a TGI [13] greater than 100 µM, a TGI [14] greater than 100 µM and a TGI [15] greater than 100 µM.

Work on `Cc1nn(C(=O)Cc2ccccc2)c2c1C(c1ccccc1)SC(N)=N2` (centres undefined) yielded a TGI [1] greater than 100 µM, a TGI [3] greater than 100 µM and a TGI [4] greater than 100 µM. It also gave a TGI [5] greater than 100 µM, a TGI [6] greater than 100 µM and a TGI [7] greater than 100 µM. For the same compound, the TGI [9] was greater than 100 µM, the TGI [10] was greater than 100 µM and the TGI [11] was greater than 100 µM. For the same compound, the TGI [12] was greater than 100 µM, the TGI [13] was greater than 100 µM and the TGI [14] was greater than 100 µM. For the same compound, the TGI [15] was greater than 100 µM and the TGI [16] was greater than 100 µM.

Work on `O=C1c2cc3c(cc2CC12Cc1ccc4c(c1C2=O)CCC4)CCCC3` (centres undefined) yielded a TGI [1] greater than 100 µM, a TGI [2] greater than 100 µM and a TGI [3] greater than 100 µM. The TGI [4] was greater than 100 µM, the TGI [5] was greater than 100 µM and the TGI [6] was greater than 100 µM. The TGI [7] was greater than 100 µM, the TGI [8] was greater than 100 µM and the TGI [9] was greater than 100 µM. The TGI [11] was greater than 100 µM, the TGI [12] was greater than 100 µM and the TGI [13] was greater than 100 µM. For the same compound, the TGI [14] was greater than 100 µM, the TGI [15] was greater than 100 µM and the TGI [16] was greater than 100 µM.
